Assay results reported in ChEMBL document CHEMBL1129976, “New benzocycloalkylpiperazines, potent and selective 5-HT1A receptor ligands” (J Med Chem, 1997).

What was measured:
[1] = molecular target: T1, 5-hydroxytryptamine receptor 1A (Rattus norvegicus) (UniProt P19327); assay: Inhibition of [3H]8-OH-DPAT binding to 5-hydroxytryptamine 1A receptor in rat hippocampal membranes at 10e-7 M; type: cell membranes; conditions: Hippocampus, Membrane
T1 sequence (whole entry): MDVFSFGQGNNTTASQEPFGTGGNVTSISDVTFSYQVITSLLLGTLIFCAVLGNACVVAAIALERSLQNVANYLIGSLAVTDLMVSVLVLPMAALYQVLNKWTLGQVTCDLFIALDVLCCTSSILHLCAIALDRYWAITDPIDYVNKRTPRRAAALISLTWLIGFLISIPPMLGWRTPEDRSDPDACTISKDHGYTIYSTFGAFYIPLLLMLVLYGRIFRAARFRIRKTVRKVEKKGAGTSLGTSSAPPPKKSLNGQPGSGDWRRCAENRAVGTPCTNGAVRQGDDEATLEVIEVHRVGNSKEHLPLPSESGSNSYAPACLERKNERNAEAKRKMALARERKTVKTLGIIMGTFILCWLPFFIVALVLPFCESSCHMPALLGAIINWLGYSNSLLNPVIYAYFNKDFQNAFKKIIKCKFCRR

Bos taurus [2] = species: Bos taurus; assay: Inhibition of [3H]ketanserin binding to 5-hydroxytryptamine 2 receptor of bovine frontal cortex at 10e-7 M; type: tissue-based
Bos taurus [3] = species: Bos taurus; assay: Inhibition of [3H]prazosin binding to Alpha-1 adrenergic receptor of calf frontal cortex at 10e-7 M; type: tissue-based
[4] = molecular target: D(2) dopamine receptor (Bos taurus) (UniProt P20288); assay: Inhibition of [3H]YM-09151-2 binding to Dopamine receptor D2 of bovine striatal preparations at 10e-7 M
Sequence of D(2) dopamine receptor (Bos taurus) (P20288 whole entry): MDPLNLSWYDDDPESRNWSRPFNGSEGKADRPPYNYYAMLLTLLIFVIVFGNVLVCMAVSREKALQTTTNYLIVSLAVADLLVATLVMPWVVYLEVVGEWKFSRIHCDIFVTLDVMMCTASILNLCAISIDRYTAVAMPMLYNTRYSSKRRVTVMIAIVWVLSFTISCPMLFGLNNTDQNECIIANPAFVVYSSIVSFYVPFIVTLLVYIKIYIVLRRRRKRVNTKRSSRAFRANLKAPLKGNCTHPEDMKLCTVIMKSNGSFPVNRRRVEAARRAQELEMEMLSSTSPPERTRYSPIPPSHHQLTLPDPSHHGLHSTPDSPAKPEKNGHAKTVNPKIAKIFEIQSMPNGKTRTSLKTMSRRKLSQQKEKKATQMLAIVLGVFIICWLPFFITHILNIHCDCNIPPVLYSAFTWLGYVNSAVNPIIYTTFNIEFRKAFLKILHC

[5] = molecular target: T2, 5-hydroxytryptamine receptor 1A (Rattus norvegicus, UniProt P19327); assay: Displacement of [3H]8-OH-DPAT from 5-hydroxytryptamine 1A receptor of rat hippocampal membranes; type: cell membranes, Membrane
T2 sequence (P19327 whole entry): T1 sequence (whole entry)

[6] = molecular target: T2, 5-hydroxytryptamine receptor 1A; assay: Inhibition of forskolin-activated adenylate cyclase (cAMP) activity at 5-hydroxytryptamine 1A receptor in rat hippocampus; type: functional, tissue-based
[7] = Inhibition of [3H]ketanserin binding to 5-hydroxytryptamine 2 receptor of bovine frontal cortex; type: tissue-based, Bos taurus
D(2) dopamine receptor = D(2) dopamine receptor (Bos taurus, UniProt P20288); assay: Inhibition of [3H]raclopride binding to Dopamine receptor D2 of bovine striatum; type: tissue-based
Sequence of D(2) dopamine receptor (P20288 whole entry): as above

D(1A) dopamine receptor [8] = molecular target: T3, D(1A) dopamine receptor (Bos taurus, UniProt Q95136); assay: Inhibition of [3H]SCH-23390 binding to Dopamine receptor D1 of bovine striatum; type: tissue-based
T3 sequence (Q95136 whole entry): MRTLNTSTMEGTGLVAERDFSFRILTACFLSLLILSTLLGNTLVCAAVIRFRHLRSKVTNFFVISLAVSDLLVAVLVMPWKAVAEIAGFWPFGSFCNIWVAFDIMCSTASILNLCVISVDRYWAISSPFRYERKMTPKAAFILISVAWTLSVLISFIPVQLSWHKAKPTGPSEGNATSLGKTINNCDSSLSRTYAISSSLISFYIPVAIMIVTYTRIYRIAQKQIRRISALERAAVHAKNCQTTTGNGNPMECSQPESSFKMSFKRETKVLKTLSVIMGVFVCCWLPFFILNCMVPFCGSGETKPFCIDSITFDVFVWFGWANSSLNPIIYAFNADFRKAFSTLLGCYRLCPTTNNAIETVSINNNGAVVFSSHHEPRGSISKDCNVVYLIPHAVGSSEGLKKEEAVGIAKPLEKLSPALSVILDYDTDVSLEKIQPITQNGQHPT

[9] = molecular target: Sigma non-opioid intracellular receptor 1 (Rattus norvegicus, UniProt Q9R0C9); assay: Inhibition of [3H]DTG binding to sigma receptor in rat hippocampus; type: tissue-based
Sequence of Sigma non-opioid intracellular receptor 1 (Rattus norvegicus, UniProt Q9R0C9) (Q9R0C9 whole entry): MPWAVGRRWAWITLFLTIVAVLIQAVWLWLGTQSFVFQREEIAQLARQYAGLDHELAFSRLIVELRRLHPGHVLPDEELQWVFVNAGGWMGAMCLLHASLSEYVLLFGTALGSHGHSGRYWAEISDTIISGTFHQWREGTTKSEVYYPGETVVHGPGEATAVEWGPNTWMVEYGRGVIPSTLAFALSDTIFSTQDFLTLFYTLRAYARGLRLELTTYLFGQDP

[10] = Displacement of [3H]-prazosin from Alpha-1 adrenergic receptor of bovine frontal cortex; type: tissue-based, Bos taurus
[11] = molecular target: 5-hydroxytryptamine receptor 2A (Bos taurus, UniProt Q75Z89); assay: Binding affinity against 5-hydroxytryptamine 2 receptor
Sequence of 5-hydroxytryptamine receptor 2A (Q75Z89 whole entry): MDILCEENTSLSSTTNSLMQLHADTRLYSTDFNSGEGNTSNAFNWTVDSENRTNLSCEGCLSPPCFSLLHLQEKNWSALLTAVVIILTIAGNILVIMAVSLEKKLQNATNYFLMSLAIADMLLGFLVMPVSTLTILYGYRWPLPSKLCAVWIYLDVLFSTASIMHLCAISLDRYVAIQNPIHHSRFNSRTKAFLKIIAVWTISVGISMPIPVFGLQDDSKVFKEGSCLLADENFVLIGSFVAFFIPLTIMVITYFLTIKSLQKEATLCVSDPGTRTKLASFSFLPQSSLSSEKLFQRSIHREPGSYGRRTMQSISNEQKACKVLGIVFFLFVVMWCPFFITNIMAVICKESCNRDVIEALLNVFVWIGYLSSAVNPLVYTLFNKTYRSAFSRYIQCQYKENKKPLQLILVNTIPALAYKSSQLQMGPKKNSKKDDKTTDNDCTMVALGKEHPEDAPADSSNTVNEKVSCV

D(1A) dopamine receptor [12] = molecular target: D(1A) dopamine receptor (Mus musculus, UniProt Q61616); assay: Binding affinity against Dopamine receptor D1
Sequence of D(1A) dopamine receptor (Mus musculus, UniProt Q61616) (Q61616 whole entry): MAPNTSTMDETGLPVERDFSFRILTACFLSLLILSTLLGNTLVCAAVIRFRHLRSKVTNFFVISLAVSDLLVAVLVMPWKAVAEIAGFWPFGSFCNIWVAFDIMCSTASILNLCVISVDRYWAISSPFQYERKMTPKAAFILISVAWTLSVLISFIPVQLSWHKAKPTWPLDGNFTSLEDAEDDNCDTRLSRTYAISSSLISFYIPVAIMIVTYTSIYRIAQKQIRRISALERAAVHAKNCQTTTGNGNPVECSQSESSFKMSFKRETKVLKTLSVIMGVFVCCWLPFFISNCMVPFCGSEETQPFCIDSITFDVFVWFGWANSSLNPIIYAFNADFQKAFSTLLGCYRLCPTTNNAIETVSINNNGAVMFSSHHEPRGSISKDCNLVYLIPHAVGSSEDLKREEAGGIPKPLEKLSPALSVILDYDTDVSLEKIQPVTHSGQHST

Rattus norvegicus = assay: in vivo behavioral test for Lower Lip Retraction(LLR) (msad=minimum significant active dose) in rats; type: functional
[13] = molecular target: Sigma non-opioid intracellular receptor 1 (Homo sapiens, UniProt Q99720); assay: Binding affinity against sigma receptor
Sequence of Sigma non-opioid intracellular receptor 1 (Homo sapiens, UniProt Q99720) (Q99720 whole entry): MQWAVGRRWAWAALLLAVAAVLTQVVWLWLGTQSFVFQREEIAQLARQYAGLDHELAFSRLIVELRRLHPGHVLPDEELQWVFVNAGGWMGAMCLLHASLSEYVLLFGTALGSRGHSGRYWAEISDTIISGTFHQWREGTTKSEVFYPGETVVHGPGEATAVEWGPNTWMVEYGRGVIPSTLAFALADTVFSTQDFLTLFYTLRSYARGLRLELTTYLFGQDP

Histamine H1 receptor = Histamine H1 receptor (Rattus norvegicus, UniProt P31390); assay: Inhibition of [3H]pyrilamine binding to Histamine H1 receptor in rat cortex
Sequence of Histamine H1 receptor (P31390 whole entry): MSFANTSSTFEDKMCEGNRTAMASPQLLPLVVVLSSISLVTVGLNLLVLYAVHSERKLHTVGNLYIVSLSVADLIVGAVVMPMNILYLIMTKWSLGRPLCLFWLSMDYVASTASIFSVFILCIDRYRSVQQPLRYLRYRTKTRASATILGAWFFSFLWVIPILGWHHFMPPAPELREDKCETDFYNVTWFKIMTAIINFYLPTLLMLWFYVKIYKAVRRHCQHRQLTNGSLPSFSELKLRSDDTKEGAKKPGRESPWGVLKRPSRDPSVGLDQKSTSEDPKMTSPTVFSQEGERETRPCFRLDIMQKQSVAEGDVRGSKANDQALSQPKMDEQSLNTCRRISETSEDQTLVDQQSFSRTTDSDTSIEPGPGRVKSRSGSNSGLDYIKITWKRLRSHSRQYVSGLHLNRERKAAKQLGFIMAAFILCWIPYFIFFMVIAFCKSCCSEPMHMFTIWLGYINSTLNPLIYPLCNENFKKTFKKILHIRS

D(1A) dopamine receptor [14] = molecular target: T3, D(1A) dopamine receptor; assay: Binding affinity of compound towards Dopamine receptor D1 using [3H]SCH-23390 (0.5 nM) ligand in striatum bovine was determined; type: tissue-based

SMILES | inhibition [1] [%] | inhibition (Bos taurus [2]) [%] | inhibition (Bos taurus [3]) [%] | inhibition [4] [%] | Ki (D(2) dopamine receptor) [nM] | Ki [10] [nM] | other results
O=C(NCCN1CCN(C2CCCc3ccccc32)CC1)c1ccc(Cl)cc1 (stereo in doubt; (+)-34) | – | – | – | – | 700 | 8380 | Ki [5]: 210 nM; IC50 [6]: 1500 nM; Ki [7]: 3800 nM; Ki (D(1A) dopamine receptor [8]): 19700 nM; Ki [9]: 200 nM
O=C(NCCN1CCN(C2CCCCc3ccccc32)CC1)c1ccccc1 (configuration not stated) | 51 | 37 | 0 | 7 | – | – | –
CCCN(CCC)C1CCc2cccc(O)c2C1 (configuration not stated) [8-OH-DPAT] | – | – | – | – | 2380 | 9460 | Ki ([7]; read-out: Ki): 1100 nM; Ki [11]: > 1000 nM; Ki (D(1A) dopamine receptor [12]): > 1000 nM; Ki (D(1A) dopamine receptor [8]): 87300 nM; LLR msad (Rattus norvegicus): 2.2 mg/kg; Ki [9]: 5240 nM; Ki [13]: > 2430 nM
O=C(NCCN1CCN(C2CCCc3ccccc32)CC1)c1ccc(F)cc1 (single isomer, unassigned; (-)) | – | – | – | – | 70 | 124 | IC50 [6]: 15 nM; Ki ([7]; read-out: Ki): 1380 nM; Ki (D(1A) dopamine receptor [8]): 3090 nM; Ki (Histamine H1 receptor): 58 nM; LLR msad (Rattus norvegicus): 2.25 mg/kg; Ki [9]: 130 nM
O=C(NCCN1CCN(C2CCCc3ccccc32)CC1)c1ccc(Cl)cc1 (stereo in doubt; 34) | – | – | – | – | 120 | 410 | Ki [5]: 10 nM; IC50 [6]: 75 nM; Ki [7]: 1000 nM
O=C(NCCN1CCN(C2CCCc3ccccc32)CC1)c1ccc(F)cc1 (stereo in doubt; 33) | 88 | 17 | 22 | 3 | – | – | –
OCCN1CCN(CC/C=C2\c3ccccc3Sc3ccc(C(F)(F)F)cc32)CC1 [E-FLUPENTIXOL] | – | – | – | – | – | – | Ki (D(1A) dopamine receptor [14]): 18 nM

More lines, main results first:

inhibition [1] [%] | inhibition (Bos taurus [2]) [%] | inhibition (Bos taurus [3]) [%] | inhibition [4] [%] | SMILES | Ki (D(2) dopamine receptor) [nM] | Ki [10] [nM] | other results
68 | 19 | 6 | 0 | O=C(NCCCN1CCN(C2CCCc3ccccc32)CC1)c1ccc(F)cc1 (configuration not stated) | – | – | –
11 | 10 | 0 | 60 | COc1ccc(C(=O)NCCN2CCN(C3CCCCc4ccccc43)CC2)cc1 (configuration not stated) | – | – | –
45 | 17 | 6 | 11 | COc1ccc(C(=O)NCCN2CCN(C3CCc4ccccc43)CC2)cc1 (configuration not stated) | – | – | –
42 | 6 | 0 | 5 | Cc1ccc(C(=O)NCCN2CCN(C3CCCc4ccccc43)CC2)cc1 (configuration not stated) | – | – | –
0 | 14 | 0 | 47 | Cc1ccc(C(=O)NCCN2CCN(C3CCCCc4ccccc43)CC2)cc1 (configuration not stated) | – | – | –
69 | 0 | 36 | 0 | O=C(NCCN1CCN(C2CCc3ccccc32)CC1)c1ccc(F)cc1 (configuration not stated) | – | – | –
